Test results as given in patent US8637510B2, “Morpholinothiazoles as alpha 7 positive allosteric modulators” (Janssen Pharmaceutica NV, priority 2009, dated 2014).
Counter-ions that a name gives are not always drawn.

Target: T1, human alpha 7-wt nAChR (Homo sapiens, UniProt P36544)
T1 construct: expressed in transfected cells
Experiment: Ca2+ flux imaging (FDSS) (Protocol B)
Type: cell-based
Conditions: for Emax: efficacy of 100 μM choline defined as 100% in the absence of a PAM, read-out: a7-PAM-G_[33]_Eff_Curve_FI % Efficacy; for EC50: potentiation of 100 μM choline, compounds 0.01 μM to 30 μM, read-out: a7-PAM-G_[33]_pEC50 pEC50 (converted)
Protocol: Ca^2+ Flux Imaging (FDSS) (Protocol B)
• Hanks buffered saline solution (HBSS, Invitrogen, Belgium), supplemented with 10 mM HEPES (Invitrogen, Belgium), CaCl2 to a final concentration of 5 mM, 0.1% Bovine serum albumin (Sigma-Aldrich NV, Belgium). b) Calcium-Sensitive Dye—Fluo-4AM • Fluo-4AM (Molecular Probes, USA) was dissolved in DMSO containing 10% Pluronic acid (Molecular Probes, USA) to give a stock solution which was diluted in assay buffer supplemented with 5 mM probenicid (Sigma, Aldrich NV, Belgium) to give a final concentration of 2 μM. c) 384-Well Plates • Black-sided, transparent bottomed 384 well plates coated with poly-D-lysine, PDL pre-coated (Corning, Incorporated, USA) d) Calcium Flux Measurement • A Functional drug screening system (FDSS, Hamamatsu) was used to measure intracellular free-calcium flux signals. Method
Monolayers of human alpha 7-wt nAChR-expressing cells were grown in black-sided, transparent bottomed 384 well plates coated with PDL for 24 hours prior to loading with a fluorescent calcium indicator, fluo-4AM for up to 120 minutes.
PAM activity was detected in real time by applying the compounds to be tested to the loaded cells along with an alpha 7 nicotinic receptor agonist during constant monitoring of cellular fluorescence in a FDSS. Compounds giving peak fluorescent responses greater than the response due to agonist alone, were considered to be alpha 7 nAChR PAMs. The alpha 7 nicotinic receptor agonist was choline, applied at a sub-maximal concentration of 100 μM. In a further setting of the present invention the compounds were applied prior to the alpha 7 nicotinic receptor agonist, in a particular 10 minutes prior to the agonist.
A control response to choline was calculated on each plate from the difference in peak in fluorescence in wells receiving either choline or assay buffer alone. Compounds of the present invention were tested at a concentration range from 0.01 μM to 30 μM. Compounds were considered to have an interesting activity when they potentiated the choline signal at least with 200% when tested at a concentration of 30 μM (the efficacy of 100 μM choline was defined as 100% in the absence of a PAM). An EC50 (or pEC50) was determined as a concentration relating to half the maximal effect, when a clear sigmoidal curve with top plateau was obtained.

T1 sequence (P36544 23-502): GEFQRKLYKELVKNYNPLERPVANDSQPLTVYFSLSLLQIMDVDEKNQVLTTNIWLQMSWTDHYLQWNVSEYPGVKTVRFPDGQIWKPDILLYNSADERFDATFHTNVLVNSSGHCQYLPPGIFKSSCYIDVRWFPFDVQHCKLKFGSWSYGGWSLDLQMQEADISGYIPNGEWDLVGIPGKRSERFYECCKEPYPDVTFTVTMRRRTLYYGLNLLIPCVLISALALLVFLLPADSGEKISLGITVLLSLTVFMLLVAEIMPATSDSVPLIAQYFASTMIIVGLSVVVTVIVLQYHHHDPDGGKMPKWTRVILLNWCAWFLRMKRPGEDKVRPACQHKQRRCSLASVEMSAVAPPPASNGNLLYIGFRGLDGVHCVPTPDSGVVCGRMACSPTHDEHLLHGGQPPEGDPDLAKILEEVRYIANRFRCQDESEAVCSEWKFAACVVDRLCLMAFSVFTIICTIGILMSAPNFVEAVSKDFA

| Emax | EC50 | Structure (SMILES) |
| --- | --- | --- |
| 699% | 0.617 µM | Cc1cc(-c2sc(N3C[C@@H](C)O[C@@H](C)C3)nc2CNC(=O)c2cc(C)n(C(C)(C)C)n2)cc(C)n1 [Compound 139, 1-(1,1-dimethylethyl)-N-[[2-[(2R,6S)-2,6-dimethyl-4-morpholinyl]-5-(2,6-dimethyl-4-pyridinyl)-4-thiazolyl]methyl]-5-methyl-1H-pyrazole-3-carboxamide] |
| 451% | 1.2 µM | COc1cccc(C(=O)NCc2nc(N3C[C@@H](C)O[C@@H](C)C3)sc2-c2cc(C)nc(C)c2)n1 [Compound 140, N-[[2-[(2R,6S)-2,6-dimethyl-4-morpholinyl]-5-(2,6-dimethyl-4-pyridinyl)-4-thiazolyl]methyl]-6-methoxy-2-pyridinecarboxamide] |
| 764% | 0.692 µM | Cc1cc(-c2sc(N3C[C@@H](C)O[C@@H](C)C3)nc2CNC(=O)c2ccoc2)cc(C)n1 [Compound 141, N-[[2-[(2R,6S)-2,6-dimethyl-4-morpholinyl]-5-(2,6-dimethyl-4-pyridinyl)-4-thiazolyl]methyl]-3-furancarboxamide] |
| 669% | – | Cc1cc(-c2sc(N3C[C@@H](C)O[C@@H](C)C3)nc2CNC(=O)c2ccn(C)n2)cc(C)n1 [Compound 142, N-[[2-[(2R,6S)-2,6-dimethyl-4-morpholinyl]-5-(2,6-dimethyl-4-pyridinyl)-4-thiazolyl]methyl]-1-methyl-1H-pyrazole-3-carboxamide] |
| – | 0.148 µM | Cc1cc(-c2sc(N3C[C@@H](C)O[C@@H](C)C3)nc2CNC(=O)CCCC(F)(F)F)cc(C)n1 [Compound 145, N-[[2-[(2R,6S)-2,6-dimethyl-4-morpholinyl]-5-(2,6-dimethyl-4-pyridinyl)-4-thiazolyl]methyl]-5,5,5-trifluoro-pentanamide] |
| – | 0.871 µM | Cc1cc(-c2sc(N3C[C@@H](C)O[C@@H](C)C3)nc2CNC(=O)c2ccoc2C)cc(C)n1 [Compound 151, N-[[2-[(2R,6S)-2,6-dimethyl-4-morpholinyl]-5-(2,6-dimethyl-4-pyridinyl)-4-thiazolyl]methyl]-2-methyl-3-furancarboxamide] |
| – | 6.92 µM | Cc1cc(-c2sc(N3C[C@@H](C)O[C@@H](C)C3)nc2CNC(=O)c2ocnc2C)cc(C)n1 [Compound 152, N-[[2-[(2R,6S)-2,6-dimethyl-4-morpholinyl]-5-(2,6-dimethyl-4-pyridinyl)-4-thiazolyl]methyl]-4-methyl-5-oxazolecarboxamide] |
| – | 2.75 µM | Cc1cc(-c2sc(N3C[C@@H](C)O[C@@H](C)C3)nc2CNC(=O)c2scnc2C)cc(C)n1 [Compound 153, N-[[2-[(2R,6S)-2,6-dimethyl-4-morpholinyl]-5-(2,6-dimethyl-4-pyridinyl)-4-thiazolyl]methyl]-4-methyl-5-thiazolecarboxamide] |
| – | 0.0759 µM | Cc1cc(-c2sc(N3C[C@@H](C)O[C@@H](C)C3)nc2CNC(=O)c2snnc2C)cc(C)n1 [Compound 155, N-[[2-[(2R,6S)-2,6-dimethyl-4-morpholinyl]-5-(2,6-dimethyl-4-pyridinyl)-4-thiazolyl]methyl]-4-methyl-1,2,3-thiadiazole-5-carboxamide] |
| 951% | 1.58 µM | COc1nc(C)c(C(=O)NCc2nc(N3C[C@@H](C)O[C@@H](C)C3)sc2-c2cc(C)nc(C)c2)s1 [Compound 158, N-[[2-[(2R,6S)-2,6-dimethyl-4-morpholinyl]-5-(2,6-dimethyl-4-pyridinyl)-4-thiazolyl]methyl]-2-methoxy-4-methyl-5-thiazolecarboxamide] |
| 842% | 0.813 µM | Cc1cc(-c2sc(N3C[C@@H](C)O[C@@H](C)C3)nc2CNC(=O)c2cc(C)sc2C)cc(C)n1 [Compound 162, N-[[2-[(2R,6S)-2,6-dimethyl-4-morpholinyl]-5-(2,6-dimethyl-4-pyridinyl)-4-thiazolyl]methyl]-2,5-dimethyl-3-thiophenecarboxamide] |
| – | 0.049 µM | Cc1cc(-c2sc(N3C[C@@H](C)O[C@@H](C)C3)nc2CNC(=O)c2ccc(C(F)(F)F)nc2C)cc(C)n1 [Compound 165, N-[[2-[(2R,6S)-2,6-dimethyl-4-morpholinyl]-5-(2,6-dimethyl-4-pyridinyl)-4-thiazolyl]methyl]-2-methyl-6-(trifluoromethyl)-3-pyridinecarboxamide] |
| – | 1.23 µM | Cc1cc(CC(=O)NCc2nc(N3C[C@@H](C)O[C@@H](C)C3)sc2-c2cc(C)nc(C)c2)on1 [Compound 167, N-[[2-[(2R,6S)-2,6-dimethyl-4-morpholinyl]-5-(2,6-dimethyl-4-pyridinyl)-4-thiazolyl]methyl]-3-methyl-5-isoxazoleacetamide] |
| 671% | – | Cc1cc(-c2sc(N3C[C@@H](C)O[C@@H](C)C3)nc2CNC(=O)c2cn(C)nc2C)cc(C)n1 [Compound 169, N-[[2-[(2R,6S)-2,6-dimethyl-4-morpholinyl]-5-(2,6-dimethyl-4-pyridinyl)-4-thiazolyl]methyl]-1,3-dimethyl-1H-pyrazole-4-carboxamide] |
| 499% | 3.09 µM | Cc1cc(-c2sc(N3C[C@@H](C)O[C@@H](C)C3)nc2CNC(=O)CC#N)cc(C)n1 [Compound 170, 2-cyano-N-[[2-[(2R,6S)-2,6-dimethyl-4-morpholinyl]-5-(2,6-dimethyl-4-pyridinyl)-4-thiazolyl]methyl]-acetamide] |
| 425% | 0.776 µM | Cc1cc(-c2sc(N3C[C@@H](C)O[C@@H](C)C3)nc2CNC(=O)c2oc(C)cc2C)cc(C)n1 [Compound 173, N-[[2-[(2R,6S)-2,6-dimethyl-4-morpholinyl]-5-(2,6-dimethyl-4-pyridinyl)-4-thiazolyl]methyl]-3,5-dimethyl-2-furancarboxamide] |
| 149% | – | Cc1cc(-c2sc(N3C[C@@H](C)O[C@@H](C)C3)nc2CNC(=O)C2(O)CC2)cc(C)n1 [Compound 176, N-[[2-[(2R,6S)-2,6-dimethyl-4-morpholinyl]-5-(2,6-dimethyl-4-pyridinyl)-4-thiazolyl]methyl]-1-hydroxy-cyclopropanecarboxamide] |
| 26% | – | Cc1cc(-c2sc(N3C[C@@H](C)O[C@@H](C)C3)nc2CNC(=O)C(F)(F)F)cc(C)n1 [Compound 177, N-[[2-[(2R,6S)-2,6-dimethyl-4-morpholinyl]-5-(2,6-dimethyl-4-pyridinyl)-4-thiazolyl]methyl]-2,2,2-trifluoro-acetamide] |
| 991% | 1.91 µM | Cc1cc(-c2sc(N3CCOC(C)(C)C3)nc2CNC(=O)c2cc(C)on2)cc(C)n1 [Compound 181, N-[[2-(2,2-dimethyl-4-morpholinyl)-5-(2,6-dimethyl-4-pyridinyl)-4-thiazolyl]methyl]-5-methyl-3-isoxazolecarboxamide] |
| 702% | 1.45 µM | Cc1cc(-c2sc(N3CCOC(C)(C)C3)nc2CNC(=O)c2conc2C)cc(C)n1 [Compound 182, N-[[2-(2,2-dimethyl-4-morpholinyl)-5-(2,6-dimethyl-4-pyridinyl)-4-thiazolyl]methyl]-3-methyl-4-isoxazolecarboxamide•HCl] |
| – | 2.75 µM | Cc1cc(-c2sc(N3CCOC(C)(C)C3)nc2CNC(=O)C(C)C)cc(C)n1 [Compound 183, N-[[2-(2,2-dimethyl-4-morpholinyl)-5-(2,6-dimethyl-4-pyridinyl)-4-thiazolyl]methyl]-2-methyl-propanamide] |
| 835% | 4.79 µM | Cc1cc(-c2sc(N3CCOC[C@@H]3C)nc2CNC(=O)c2conc2C)cc(C)n1 [Compound 185, N-[[5-(2,6-dimethyl-4-pyridinyl)-2-[(3S)-3-methyl-4-morpholinyl]-4-thiazolyl]methyl]-3-methyl-4-isoxazolecarboxamide] |
| 945% | 3.8 µM | Cc1cc(-c2sc(N3CCOC[C@@H]3C)nc2CNC(=O)c2cc(C)on2)cc(C)n1 [Compound 186, N-[[5-(2,6-dimethyl-4-pyridinyl)-2-[(3S)-3-methyl-4-morpholinyl]-4-thiazolyl]methyl]-5-methyl-3-isoxazolecarboxamide] |
| 685% | 5.01 µM | Cc1cc(-c2sc(N3CCOC[C@@H]3C)nc2CNC(=O)C(C)C)cc(C)n1 [Compound 188, N-[[5-(2,6-dimethyl-4-pyridinyl)-2-[(3S)-3-methyl-4-morpholinyl]-4-thiazolyl]methyl]-2-methyl-propanamide] |

| Structure (SMILES) | Emax | EC50 |
| --- | --- | --- |
| Cc1cc(-c2sc(N3C[C@@H](C)O[C@@H](C)C3)nc2CNC(=O)c2cc(C(C)(C)C)on2)cc(C)n1 [Compound 143, 5-(1,1-dimethylethyl)-N-[[2-[(2R,6S)-2,6-dimethyl-4-morpholinyl]-5-(2,6-dimethyl-4-pyridinyl)-4-thiazolyl]methyl]-3-isoxazolecarboxamide] | – | 0.891 µM |
